Data taken from patent US9688710B2, “Inhibitors of sodium glucose cotransporter 1” (LEXICON PHARMACEUTICALS, INC., priority 2012, dated 2017).

Assays:
[1] = molecular target: Human sodium/glucose co-transporter type 1 (SGLT1) (Homo sapiens (Human), UniProt P13866); experiment: In vitro human SGLT1 inhibition assay (14C-AMG uptake); type: cell-based; design: key to SGLT1 (human SGLT1 IC50): ***: a value less than 0.01 μM; **: a value less than 0.1 μM; *: a value less than 1 μM; —: a value not measured or exceeding μM; settings: HEK293 cells expressing human HA-SGLT1, 14C-AMG uptake
Human sodium/glucose co-transporter type 1 (SGLT1), sequence (P13866 whole entry): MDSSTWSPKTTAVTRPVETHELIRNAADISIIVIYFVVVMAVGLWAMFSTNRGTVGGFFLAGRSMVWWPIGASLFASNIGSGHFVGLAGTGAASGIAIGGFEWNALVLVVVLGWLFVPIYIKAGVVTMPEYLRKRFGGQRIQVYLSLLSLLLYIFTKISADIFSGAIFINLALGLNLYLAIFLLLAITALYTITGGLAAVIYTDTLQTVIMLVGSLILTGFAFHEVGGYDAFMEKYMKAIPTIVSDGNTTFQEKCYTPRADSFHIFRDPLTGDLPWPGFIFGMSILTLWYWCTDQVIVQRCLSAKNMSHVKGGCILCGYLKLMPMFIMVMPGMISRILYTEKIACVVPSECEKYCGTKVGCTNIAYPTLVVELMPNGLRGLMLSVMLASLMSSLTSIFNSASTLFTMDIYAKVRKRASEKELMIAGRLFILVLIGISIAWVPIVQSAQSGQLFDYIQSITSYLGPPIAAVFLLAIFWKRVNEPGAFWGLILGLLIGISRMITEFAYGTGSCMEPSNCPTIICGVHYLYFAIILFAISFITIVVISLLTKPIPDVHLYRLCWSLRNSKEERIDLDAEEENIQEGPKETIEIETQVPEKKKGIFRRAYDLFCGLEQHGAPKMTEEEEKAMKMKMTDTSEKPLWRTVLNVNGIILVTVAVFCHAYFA
Summary of the method: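 HEK293 cells stably expressing human HA-tagged SGLT1 (30,000/well, overnight) were washed into Na+-containing uptake buffer (140 mM NaCl, HEPES/Tris, 1 mg/mL BSA, pH 7.3). Cells then received compound plus 100 nCi 14C-AMG for 1–2 h at 37 °C; after washing, AMG uptake was quantified by scintillation counting.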

[2] = molecular target: Human sodium/glucose co-transporter type 2 (SGLT2) (Homo sapiens (Human), UniProt P31639); experiment: In vitro human SGLT2 inhibition assay (14C-AMG uptake); type: cell-based; settings: HEK293 cells expressing human HA-SGLT2, 14C-AMG uptake
Human sodium/glucose co-transporter type 2 (SGLT2), sequence (P31639 whole entry): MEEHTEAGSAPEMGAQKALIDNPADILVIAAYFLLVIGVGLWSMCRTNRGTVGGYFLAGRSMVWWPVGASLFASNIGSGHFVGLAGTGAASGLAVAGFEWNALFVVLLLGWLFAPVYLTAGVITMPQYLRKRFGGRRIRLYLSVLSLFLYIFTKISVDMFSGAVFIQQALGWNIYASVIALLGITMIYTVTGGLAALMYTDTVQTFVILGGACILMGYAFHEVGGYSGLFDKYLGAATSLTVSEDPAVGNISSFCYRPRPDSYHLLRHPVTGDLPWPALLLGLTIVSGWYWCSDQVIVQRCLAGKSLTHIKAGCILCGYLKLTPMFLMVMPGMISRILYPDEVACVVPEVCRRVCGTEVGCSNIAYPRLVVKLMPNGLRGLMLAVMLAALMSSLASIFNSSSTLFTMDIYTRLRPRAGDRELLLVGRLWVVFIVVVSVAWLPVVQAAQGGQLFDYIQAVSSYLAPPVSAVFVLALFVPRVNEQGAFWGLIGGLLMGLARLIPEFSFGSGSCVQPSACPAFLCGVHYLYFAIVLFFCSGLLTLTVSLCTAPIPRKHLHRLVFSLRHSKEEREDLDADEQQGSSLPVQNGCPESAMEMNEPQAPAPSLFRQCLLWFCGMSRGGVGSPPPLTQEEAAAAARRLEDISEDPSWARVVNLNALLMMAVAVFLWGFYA
Summary of the method: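 HEK293 cells stably expressing HA-tagged human SGLT2, seeded overnight, washed into Na+-containing HEPES/Tris uptake buffer with 1 mg/mL BSA, pH 7.3. Compound added, then 14C-AMG (100 nCi); 1-2 h at 37 °C, 5% CO2. Washed cells counted by scintillation for 14C-AMG uptake.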

CS[C@H]1O[C@@H](c2ccc(C)c(Cc3ccc(CCCC(=O)NC4(C(=O)N5CCN(C)CC5)CCOCC4)cc3)c2)[C@H](O)[C@@H](O)[C@@H]1O [4-(4-(2-methyl-5-((2S,3R,4R,5S,6R)-3,4,5-trihydroxy-6-(methylthio)tetrahydro-2H-pyran-2-yl)benzyl)phenyl)-N-(4-(4-methylpiperazine-1-carbonyl)tetrahydro-2H-pyran-4-yl)butanamide]
IC50 [1]: < 10 nM | IC50 [2]: < 10 nM

CS[C@H]1O[C@@H](c2ccc(C)c(Cc3ccc(CCCCC(=O)NCCCC[C@H](N)C(=O)O)cc3)c2)[C@H](O)[C@@H](O)[C@@H]1O [(S)-2-amino-6-(5-(4-(2-methyl-5-((2S,3R,4R,5S,6R)-3,4,5-trihydroxy-6-(methylthio)tetrahydro-2H-pyran-2-yl)benzyl)phenyl)pentanamido)hexanoic acid]
IC50 [1]: < 100 nM | IC50 [2]: < 10 nM

CS[C@H]1O[C@@H](c2ccc(C)c(Cc3ccc(OCCCC(=O)NC(C)(CO)CO)cc3)c2)[C@H](O)[C@@H](O)[C@@H]1O [N-(1,3-dihydroxy-2-methylpropan-2-yl)-4-(4-(2-methyl-5-((2S,3R,4R,5S,6R)-3,4,5-trihydroxy-6-(methylthio)tetrahydro-2H-pyran-2-yl)benzyl)phenoxy)butanamide]
IC50 [1]: < 100 nM | IC50 [2]: < 100 nM

CCN(CC)CCCCc1ccc(Cc2cc([C@@H]3O[C@H](SC)[C@@H](O)[C@H](O)[C@H]3O)ccc2C)cc1 [(2S,3R,4R,5S,6R)-2-(3-(4-(4-(diethylamino)butyl)benzyl)-4-methylphenyl)-6-(methylthio)tetrahydro-2H-pyran-3,4,5-triol]
IC50 [1]: < 10 nM | IC50 [2]: < 10 nM

CS[C@H]1O[C@@H](c2ccc(C)c(Cc3ccc(CCCC(=O)NCC(=O)N4CCN(C)CC4)cc3)c2)[C@H](O)[C@@H](O)[C@@H]1O [4-(4-(2-methyl-5-((2S,3R,4R,5S,6R)-3,4,5-trihydroxy-6-(methylthio)tetrahydro-2H-pyran-2-yl)benzyl)phenyl)-N-(2-(4-methylpiperazin-1-yl)-2-oxoethyl)butanamide]
IC50 [1]: < 10 nM | IC50 [2]: < 10 nM

CS[C@H]1O[C@@H](c2ccc(C)c(Cc3ccc(OCCCC(=O)NC(C)(C)C(=O)NC4CCNCC4)cc3)c2)[C@H](O)[C@@H](O)[C@@H]1O [N-(2-methyl-1-oxo-1-(piperidin-4-ylamino)propan-2-yl)-4-(4-(2-methyl-5-((2S,3R,4R,5S,6R)-3,4,5-trihydroxy-6-(methylthio)tetrahydro-2H-pyran-2-yl)benzyl)phenoxy)butanamide]
IC50 [1]: < 10 nM | IC50 [2]: < 10 nM

CS[C@H]1O[C@@H](c2ccc(C)c(Cc3ccc(CCCC(=O)NCC(C)(C)C(=O)N(C)CCN(C)C)cc3)c2)[C@H](O)[C@@H](O)[C@@H]1O [N-(3-((2-(dimethylamino)ethyl)(methyl)amino)-2,2-dimethyl-3-oxopropyl)-4-(4-(2-methyl-5-((2S,3R,4R,5S,6R)-3,4,5-trihydroxy-6-(methylthio)tetrahydro-2H-pyran-2-yl)benzyl)phenyl)butanamide]
SGLT1 (human SGLT1 IC50) [1]: — | IC50 [2]: < 100 nM

CS[C@H]1O[C@@H](c2ccc(C)c(Cc3ccc(Cl)cc3)c2)[C@H](O)[C@@H](O)[C@@H]1O [(2S,3R,4R,5S,6R)-2-(3-(4-chlorobenzyl)-4-methylphenyl)-6-(methylthio)tetrahydro-2H-pyran-3,4,5-triol]
IC50 [1]: < 100 nM | IC50 [2]: < 10 nM

CS[C@H]1O[C@@H](c2ccc(C)c(Cc3ccc(OCCCC(=O)N[C@H](C)C(N)=O)cc3)c2)[C@H](O)[C@@H](O)[C@@H]1O [N-((R)-1-amino-1-oxopropan-2-yl)-4-(4-(2-methyl-5-((2S,3R,4R,5S,6R)-3,4,5-trihydroxy-6-(methylthio)tetrahydro-2H-pyran-2-yl)benzyl)phenoxy)butanamide]
IC50 [1]: < 10 nM | IC50 [2]: < 10 nM

CS[C@H]1O[C@@H](c2ccc(C)c(Cc3ccc(OCCCC(=O)NCC(C)(C)C(=O)N4CCN(C)CC4)cc3)c2)[C@H](O)[C@@H](O)[C@@H]1O [N-(2,2-dimethyl-3-(4-methylpiperazin-1-yl)-3-oxopropyl)-4-(4-(2-methyl-5-((2S,3R,4R,5S,6R)-3,4,5-trihydroxy-6-(methylthio)tetrahydro-2H-pyran-2-yl)benzyl)phenoxy)butanamide]
IC50 [1]: < 10 nM | IC50 [2]: < 10 nM

CS[C@H]1O[C@@H](c2ccc(C)c(Cc3ccc(OCC(=O)NCC(C)(C)C(N)=O)cc3)c2)[C@H](O)[C@@H](O)[C@@H]1O [2,2-dimethyl-3-(2-(4-(2-methyl-5-((2S,3R,4R,5S,6R)-3,4,5-trihydroxy-6-(methylthio)tetrahydro-2H-pyran-2-yl)benzyl)phenoxy)acetamido)propanamide]
IC50 [1]: < 100 nM | IC50 [2]: < 10 nM

CS[C@H]1O[C@@H](c2ccc(Cl)c(Cc3ccc(OCCCC[C@H](N)C(=O)O)cc3)c2)[C@H](O)[C@@H](O)[C@@H]1O [(S)-2-amino-6-(4-(2-chloro-5-((2S,3R,4R,5S,6R)-3,4,5-trihydroxy-6-(methylthio)tetrahydro-2H-pyran-2-yl)benzyl)phenoxy)hexanoic acid]
IC50 [1]: < 100 nM | IC50 [2]: < 10 nM

CS[C@H]1O[C@@H](c2ccc(Cl)c(Cc3ccc(OCCCC(=O)NC(C)(C)C(=O)O)cc3)c2)[C@H](O)[C@@H](O)[C@@H]1O [2-(4-(4-(2-chloro-5-((2S,3R,4R,5S,6R)-3,4,5-trihydroxy-6-(methylthio)tetrahydro-2H-pyran-2-yl)benzyl)phenoxy)butanamido)-2-methylpropanoic acid]
SGLT1 (human SGLT1 IC50) [1]: — | IC50 [2]: < 100 nM

CS[C@H]1O[C@@H](c2ccc(C)c(Cc3ccc(CCCCNC(C)(C)C(=O)N4CCN(C)CC4)cc3)c2)[C@H](O)[C@@H](O)[C@@H]1O [2-methyl-2-((4-(4-(2-methyl-5-((2S,3R,4R,5S,6R)-3,4,5-trihydroxy-6-(methylthio)tetrahydro-2H-pyran-2-yl)benzyl)phenyl)butyl)amino)-1-(4-methylpiperazin-1-yl)propan-1-one]
IC50 [1]: < 10 nM | IC50 [2]: < 10 nM

CS[C@H]1O[C@@H](c2ccc(C)c(Cc3ccc(CCCCCN(C[C@H](O)CO)C[C@H](O)CO)cc3)c2)[C@H](O)[C@@H](O)[C@@H]1O [(2S,3R,4R,5S,6R)-2-(3-(4-(5-(bis((S)-2,3-dihydroxypropyl)amino)pentyl)benzyl)-4-methylphenyl)-6-(methylthio)tetrahydro-2H-pyran-3,4,5-triol]
IC50 [1]: < 100 nM | IC50 [2]: < 10 nM

CS[C@H]1O[C@@H](c2ccc(C)c(Cc3ccc(CCCCCN)cc3)c2)[C@H](O)[C@@H](O)[C@@H]1O [(2S,3R,4R,5S,6R)-2-(3-(4-(5-aminopentyl)benzyl)-4-methylphenyl)-6-(methylthio)tetrahydro-2H-pyran-3,4,5-triol]
IC50 [1]: < 100 nM | IC50 [2]: < 10 nM

CS[C@H]1O[C@@H](c2ccc(C)c(Cc3ccc(CCCC(=O)NC(C)(C)C(=O)N4CCN(C(=O)OC(C)(C)C)CC4)cc3)c2)[C@H](O)[C@@H](O)[C@@H]1O [tert-butyl 4-(2-methyl-2-(4-(4-(2-methyl-5-((2S,3R,4R,5S,6R)-3,4,5-trihydroxy-6-(methylthio)tetrahydro-2H-pyran-2-yl)benzyl)phenyl)butanamido)propanoyl)piperazine-1-carboxylate]
IC50 [1]: < 10 nM | IC50 [2]: < 10 nM

CS[C@H]1O[C@@H](c2ccc(C)c(Cc3ccc(/C=C/CCC(=O)NC(CO)(CO)CO)cc3)c2)[C@H](O)[C@@H](O)[C@@H]1O [(E)-N-(1,3-dihydroxy-2-(hydroxymethyl)propan-2-yl)-5-(4-(2-methyl-5-((2S,3R,4R,5S,6R)-3,4,5-trihydroxy-6-(methylthio)tetrahydro-2H-pyran-2-yl)benzyl)phenyl)pent-4-enamide]
IC50 [1]: < 10 nM | IC50 [2]: < 10 nM

CCNC(=O)CCCOc1ccc(Cc2cc([C@@H]3O[C@H](SC)[C@@H](O)[C@H](O)[C@H]3O)ccc2C)cc1 [N-ethyl-4-(4-(2-methyl-5-((2S,3R,4R,5S,6R)-3,4,5-trihydroxy-6-(methylthio)tetrahydro-2H-pyran-2-yl)benzyl)phenoxy)butanamide]
IC50 [1]: < 10 nM | IC50 [2]: < 10 nM

CS[C@H]1O[C@@H](c2ccc(C)c(Cc3ccc(OCCCC(=O)N[C@@H](CO)C(N)=O)cc3)c2)[C@H](O)[C@@H](O)[C@@H]1O [N-((S)-1-amino-3-hydroxy-1-oxopropan-2-yl)-4-(4-(2-methyl-5-((2S,3R,4R,5S,6R)-3,4,5-trihydroxy-6-(methylthio)tetrahydro-2H-pyran-2-yl)benzyl)phenoxy)butanamide]
IC50 [1]: < 100 nM | IC50 [2]: < 10 nM

CS[C@H]1O[C@@H](c2ccc(C)c(Cc3ccc(CCCC(=O)NC(C)(C)C(=O)NC4CCN(C)CC4)cc3)c2)[C@H](O)[C@@H](O)[C@@H]1O [N-(2-methyl-1-((1-methylpiperidin-4-yl)amino)-1-oxopropan-2-yl)-4-(4-(2-methyl-5-((2S,3R,4R,5S,6R)-3,4,5-trihydroxy-6-(methylthio)tetrahydro-2H-pyran-2-yl)benzyl)phenyl)butanamide]
IC50 [1]: < 10 nM | IC50 [2]: < 10 nM

CS[C@H]1O[C@@H](c2ccc(C)c(Cc3ccc(OCCCC(N)=O)cc3)c2)[C@H](O)[C@@H](O)[C@@H]1O [4-(4-(2-methyl-5-((2S,3R,4R,5S,6R)-3,4,5-trihydroxy-6-(methylthio)tetrahydro-2H-pyran-2-yl)benzyl)phenoxy)butanamide]
IC50 [1]: < 100 nM | IC50 [2]: < 10 nM
